The results in this text go back to publication PMC12362796, “Bilirubin Targeting WNK1 to Alleviate NLRP3‐Mediated Neuroinflammation” (Advanced Science, 2025).

One experiment addresses T1, WNK1 (491–2382) (Homo sapiens, UniProt Q9H4A3).
T1 construct: different lengths of WNK1 truncations (1–491, 1–190, 191–491, 491–2382); expressed in transfected cells; host or cells: HEK293T
Kind of experiment: MST, EGFP-tagged WNK1 truncation 491–2382. In kind it is binding. The following applies: WNK1 491–2382 (non-kinase segment), 15 min, HEK293T lysates. The source says:
To further validate these findings, we constructed GFP‐tagged fusion proteins with different lengths of WNK1 truncations (1–491, 1–190, 191–491, 491–2382) based on the WNK1 domains (Figure 3E) and analyzed their binding capacity with bilirubin using MST analysis.^[ [29] ^]
All WNK1 clones were derived from the original untagged hWNK1 cDNA (NM_018979), which was modified and subcloned into the pcDNA3.1, referred to as “full‐length WNK1” throughout this study. Truncated constructs, including 1–190aa, 191–491aa, 1–491aa, and 491–2382aa fragments, were generated by PCR using the full‐length template and subsequently ligated into linearized pcDNA3.1 vectors. WNK2 was obtained from Addgene Plasmid #24569, and WNK3 was obtained from Addgene Plasmid #81723. Both were subjected to base modifications and cloned into pcDNA3.1. The WNK4 clone was derived from hWNK4 cDNA (NM_032387.5), modified, and subcloned into the pCMV3‐C‐GFPSpark vector.
In HEK293T cells, proteins tagged with green fluorescent protein (GFP) were expressed. The cells were lysed using the M‐PER Mammalian Protein Extraction Reagent (cat. no. 78505, Thermo Scientific) supplemented with protease inhibitors. Lysates were centrifuged at 12000 × g for 15 min at 4 °C, and the supernatant containing proteins was diluted 10‐fold with 1x PBST. […]

Experiment [1] relates to LPS-induced NLRP3 inflammasome activation in hippocampus. Kind of experiment: LPS-induced inflammation model in mice, hippocampal NLRP3 inflammasome activation. Format: in vivo, mouse. From the text:
Furthermore, a murine model of infection‐induced inflammation was established in neonatal wild‐type, Blvra^−/− , and Ugt1a1^+/− mice by intraperitoneal administration of lipopolysaccharide (LPS) (Figure 5A).^[ [41], [42] ^] We assessed the expression levels of NLRP3 in the hippocampal region and the aggregation of the adaptor protein ASC in hippocampal neurons to indicate the level of inflammasome activation.^[ [43], [44] ^] We observed elevated NLRP3 expression (Figure 5B) and increased ASC aggregation in low‐bilirubin Blvra^−/− mice compared to wild‐type controls, whereas these parameters were reversed in high‐bilirubin Ugt1a1^+/− mice (Figure 5C,D). Additionally, Caspase‐1 enzyme activity decreased in high‐bilirubin mice (Figure 5E), supporting the inhibitory role of bilirubin in NLRP3 activation.
Figure 5 Bilirubin‐WNK1 suppresses LPS‐induced NLRP3 activation in the mouse hippocampus. A) Diagram of the experimental design. LPS (0.6 µg g^−1) or normal saline (NS) was injected intraperitoneally (i.p.) for 5 consecutive days starting on day 7. Hippocampal tissues were harvested 6 h after last injection. B) Western blotting analysis of NLRP3 in hippocampal tissues from WT, Blvra^−/− , or Ugt1a1^+/− mice after LPS/saline treatment. C) Immunofluorescence staining of ASC speck formation in hippocampal tissues from WT, Blvra^−/− , or Ugt1a1^+/− mice after LPS/saline treatment. β3‐Tubulin was used to label neurons and DAPI to stain cell nuclei. Main image scale bars = 50 µm, inset scale bars = 5 µm. D) Summary data showing the percentage of cells containing ASC specks as shown in C) (n = 6). (E) Relative activity of caspase‐1 in hippocampal tissues from WT, Blvra^−/− , or Ugt1a1^+/− mice after LPS/saline treatment (n = 3). F) Experimental design diagram. LPS (0.6 µg g^−1), LPS combined with bilirubin (5 µg g^−1), or normal saline (NS) was injected intraperitoneally for 5 consecutive days starting on day 7. G) Western blotting analysis of NLRP3 in hippocampal tissues from Wnk1^fl/fl,Thy1‐Cre mice after treatment. H) Immunofluorescence staining of ASC speck formation in hippocampal tissues from vehicle‐treated and Wnk1^fl/fl,Thy1‐Cre mice after treatment. β3‐Tubulin was used to label neurons and DAPI to stain cell nuclei. Main image scale bars = 50 µm, inset scale bars = 5 µm. Corresponding images are also provided in Figure S21 (Supporting Information). I) Relative activity of caspase‐1 in hippocampal tissues from Wnk1^fl/fl and Wnk1^fl/fl,Thy1‐Cre mice after treatment (n = 3). Error bars indicate mean ± SD. *p < 0.05, **p < 0.01, ***p < 0.001, and ****p < 0.0001.
To investigate the role of WNK1 in mediating the inhibitory effect of bilirubin on NLRP3 activation, we used Wnk1^fl/fl,Thy1‐Cre mice which is the hippocampal neuron‐specific Wnk1 knockout mice. Mice were then administered intraperitoneal injections of saline, LPS, or a combination of LPS and bilirubin (Figure 5F). After five days of LPS treatment, we observed increased staining areas for GFAP (an astrocyte marker) and IBA1 (a microglia marker). Furthermore, a portion of the adaptor protein ASC (encoded by PYCARD) co‐localized with IBA1 and GFAP.
Caspase‐1 activity was measured using a Caspase‐1 Activity Assay Kit (Beyotime Biotechnology, Haimen, China). Briefly, 50 µg of protein from the mouse hippocampal tissue was added to a reaction buffer containing Ac‐YVAD‐ρNA. The absorbance was read at 405 nm using a microplate reader, and caspase‐1 activity was normalized to that of the control.

Where [2] appears, read: LPS 0.6 µg g−1 with bilirubin 5 µg g−1 i.p., 5 consecutive days, hippocampus.

T1 sequence (Q9H4A3 491-2382): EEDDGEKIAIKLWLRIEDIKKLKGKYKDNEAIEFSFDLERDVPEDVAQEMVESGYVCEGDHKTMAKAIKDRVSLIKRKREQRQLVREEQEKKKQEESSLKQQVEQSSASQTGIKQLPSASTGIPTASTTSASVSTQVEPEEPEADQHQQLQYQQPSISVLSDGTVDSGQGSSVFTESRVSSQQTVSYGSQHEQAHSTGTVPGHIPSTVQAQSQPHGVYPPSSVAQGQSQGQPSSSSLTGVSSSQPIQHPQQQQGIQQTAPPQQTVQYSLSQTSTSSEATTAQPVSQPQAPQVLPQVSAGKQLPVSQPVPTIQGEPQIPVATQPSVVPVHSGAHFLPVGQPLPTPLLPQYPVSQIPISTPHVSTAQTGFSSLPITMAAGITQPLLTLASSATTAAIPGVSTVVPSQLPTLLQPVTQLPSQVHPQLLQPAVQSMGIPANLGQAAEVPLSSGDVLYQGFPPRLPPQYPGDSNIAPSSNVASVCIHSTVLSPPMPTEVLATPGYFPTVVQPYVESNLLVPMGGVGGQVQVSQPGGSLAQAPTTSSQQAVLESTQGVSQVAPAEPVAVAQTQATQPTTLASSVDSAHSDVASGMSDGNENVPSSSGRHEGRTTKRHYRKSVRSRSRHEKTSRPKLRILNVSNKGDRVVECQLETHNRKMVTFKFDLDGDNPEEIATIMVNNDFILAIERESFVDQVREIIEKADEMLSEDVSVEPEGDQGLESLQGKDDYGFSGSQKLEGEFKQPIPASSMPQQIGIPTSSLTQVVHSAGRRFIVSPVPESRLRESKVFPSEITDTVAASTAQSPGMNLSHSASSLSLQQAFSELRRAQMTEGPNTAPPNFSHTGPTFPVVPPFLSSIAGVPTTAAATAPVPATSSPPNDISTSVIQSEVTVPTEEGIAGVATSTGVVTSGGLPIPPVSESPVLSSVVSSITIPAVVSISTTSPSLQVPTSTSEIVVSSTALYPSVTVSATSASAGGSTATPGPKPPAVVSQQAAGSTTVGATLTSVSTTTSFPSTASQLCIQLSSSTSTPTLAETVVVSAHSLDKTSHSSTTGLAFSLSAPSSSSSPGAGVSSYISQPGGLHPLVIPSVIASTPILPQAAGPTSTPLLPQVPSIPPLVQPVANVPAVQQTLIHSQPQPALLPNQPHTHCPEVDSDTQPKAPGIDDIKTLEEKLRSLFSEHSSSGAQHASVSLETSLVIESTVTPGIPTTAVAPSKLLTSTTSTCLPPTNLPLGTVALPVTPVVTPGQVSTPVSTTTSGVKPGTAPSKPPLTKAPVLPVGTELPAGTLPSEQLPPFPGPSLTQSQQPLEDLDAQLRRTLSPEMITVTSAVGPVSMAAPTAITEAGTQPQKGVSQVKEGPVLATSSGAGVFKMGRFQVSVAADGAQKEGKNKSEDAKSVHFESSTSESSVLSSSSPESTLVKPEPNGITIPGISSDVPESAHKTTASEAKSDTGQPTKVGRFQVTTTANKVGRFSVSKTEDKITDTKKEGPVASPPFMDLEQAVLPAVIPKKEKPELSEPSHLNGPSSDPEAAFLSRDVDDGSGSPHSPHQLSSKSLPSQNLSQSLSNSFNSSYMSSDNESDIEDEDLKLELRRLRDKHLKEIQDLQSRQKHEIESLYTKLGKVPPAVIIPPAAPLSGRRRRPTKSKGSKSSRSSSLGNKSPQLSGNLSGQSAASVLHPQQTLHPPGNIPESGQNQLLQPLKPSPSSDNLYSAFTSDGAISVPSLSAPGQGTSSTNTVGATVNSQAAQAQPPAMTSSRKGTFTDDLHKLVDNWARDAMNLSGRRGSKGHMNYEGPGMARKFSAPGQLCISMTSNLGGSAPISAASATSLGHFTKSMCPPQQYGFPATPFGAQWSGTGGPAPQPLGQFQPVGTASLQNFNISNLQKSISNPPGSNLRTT

In general, Kd refers to the concentration at which binding is half-saturated. Take `C=CC1=C(C)/C(=C/c2[nH]c(Cc3[nH]c(/C=C4\NC(=O)C(C)=C4C=C)c(C)c3CCC(=O)O)c(CCC(=O)O)c2C)NC1=O` [bilirubin, Bilirubin]: the affinity at WNK1 (491–2382), expressed as Kd, was 3.19 µM. In addition, in experiment [1] (LPS 0.6 µg g−1 with bilirubin 5 µg g−1 i.p., 5 consecutive days, hippocampal neurons), the ASC speck formation result is on record as “reduces”. In experiment [1] (setting [2]), the Caspase-1 activation entry is listed as “reduces” and the IL-1β cleavage entry is given as “reduces”. In experiment [1] (LPS with bilirubin i.p., 5 days, IBA1 and GFAP co-localization), the “ASC aggregation in microglia or astrocytes” value is “does not affect”. Moreover, the “inhibitory effect on NLRP3 inflammasome assembly, Caspase-1 enzyme activity and IL-1β maturation after deletion of Wnk1” value in experiment [1] (Wnk1fl/fl,Thy1-Cre mice, LPS stimulation) is “abolished”. In addition, the “phosphorylation-mediated activation of the NF-κB p65 subunit” value in experiment [1] (upon LPS stimulation, hippocampus) is “neither bilirubin nor Wnk1 deficiency had a significant effect”.
